Laboratory results as given in patent publication US5686421A, “Hydantoin derivates” (Hoechst Aktiengesellschaft, priority 1990, dated 1997).
Read-outs that look alike come from different tables or passages of the source.

System: human GFP (gel-filtered platelets)
Assay: Inhibition of platelet aggregation, human gel-filtered platelets stimulated with ADP or thrombin
Assay type: cell-based
Excerpt: The compounds are particularly tested for their inhibitory action on the aggregation of blood platelets and the adhesion of fibrinogen to blood platelets. Gel-filtered blood platelets from donated human blood are used and are activated with ADP or thrombin.
Inhibition of platelet aggregation to human GFP (gel-filtered platelets) stimulated with adenosine diphosphate (ADP) or thrombin (THR) (Marguerie, Plow and Edgington, J. Biol. Chem. 254 (1979) 5357-5363)

[1] = human GFP stimulated with adenosine diphosphate (ADP), read-out: IC50 (μM) ADP
[2] = human GFP stimulated with thrombin (THR), read-out: IC50 (μM) THR

IC50 [1] [µM]	IC50 [2] [µM]	Compound
20	15	N=C(N)NCCC[C@H]1NC(=O)N(CC(=O)N[C@@H](CC(=O)O)C(N)=O)C1=O [[5-(R)-(3-guanidino-propyl)-2,4-dioxo-imidazolidin-3-yl]acetyl-L-Asp-amide]
100	80	ZDArgGlyAspNH2
20	20	ZDArgGlyAspNHMbh
4	3	COc1ccc(C(NC(=O)[C@H](CC(=O)O)NC(=O)CN2C(=O)N[C@H](CCCN=C(N)N)C2=O)c2ccc(OC)cc2)cc1 [[5-(R)-(3-guanidino-propyl)-2,4-dioxo-imidazolin-3-yl]acetyl Asp 4,4'-dimethoxybenzhydrylamide]
10	4	COc1ccc(C(NC(=O)[C@H](CC(=O)O)NC(=O)CN2C(=O)N[C@@H](CCCN=C(N)N)C2=O)c2ccc(OC)cc2)cc1 [[5-(S)-(3-guanidino-propyl)-2,4-dioxo-imidazolidin-3-yl]acetyl-Asp 4,4'-dimethoxybenzhydrylamide]
500	200	N=C(N)NCCC[C@H](N)C(=O)NCC(=O)N[C@@H](CC(=O)O)C(N)=O [HArgGlyAspNH2]
500	100	N=C(N)NCCC[C@@H](N)C(=O)NCC(=O)N[C@@H](CC(=O)O)C(N)=O [HDArgGlyAspNH2]
40	40	NC(=O)[C@H](CC(=O)O)NC(=O)CN1C(=O)N[C@@H](CCCN=C(N)N)C1=O [[5-(S)-(3-guanidinopropyl)-2,4-dioxo-imidazolidin-3-yl]acetyl-Asp-amide]
